Source: article PMC9578445, “Association of respiratory failure with inhibition of NaV1.6 in the phrenic nerve” (Channels, 2022)
Where two headings read alike, the source gives them in different places.

What was measured:
[1] = system: anesthetized male CD rats; test: Rat Cardiovascular/Respiratory (CV/R) assay; format: in vivo; set-up: ∆ QRS Interval: unit not given here
Description: Male CD Rats were anesthetized with ketamine:xylazine (85 mg/kg:5 mg/kg, im, to effect). The left femoral artery and vein were cannulated for the measurement of blood pressure and the administration of test agent, respectively. The right femoral vein was cannulated for maintenance anesthetic infusion (ketamine:xylazine ~35 mg/kg/hr:1.5 mg/kg/hr, iv, to effect). Needle electrodes were placed subcutaneously at the right axillary and left inguinal areas to record lead II ECGs. When ECG intervals were required to determine effect on cardiac conduction a pacing/recording electrode catheter was advanced through the right jugular vein to pace the heart. ECG intervals were then measured at a fixed cardiac rate of 400 beats/minute to remove any variability of intrinsic heart rate on these parameters.
To determine the test agent-dependent effect on respiratory rate, a tracheotomy was also performed using a short length of polyethylene tubing containing a thermistor (AD Instruments). The change in temperature detected by the thermistor was used to calculate respiratory rate.
(§1) For in vivo CVR and phrenic nerve activity studies, all raw signals were amplified via general purposed biological amplifier (filter settings DC – 3-5 KhZ) then digitized, calibrated and collected at a minimum of 500 Hz (1000 Hz for ECG and 2000 Hz for cardiac electrograms, and 10 KHz for phrenic nerve activity) using Notocord-HEM data acquisition and analysis software. The raw signal was filtered following acquisition with a bandpass filter set to 200–800 Hz). Vehicle (100% dimethylformamdide, DMF) or compound formulated in the vehicle was administered as a 30-minute IV infusion at 0.0167 μL/g body weight/min. Doses were selected to achieve unbound plasma concentrations in range of measured Nav1.6 IC50 values when infused at 0.0167uL/g body weight/min based on measured rat clearance, plasma protein binding and Nav1.6 IC50. Exposure in rats was determined in separate pharmacokinetics experiments where compounds were administered via IV dosing.

[2] = system: rat diaphragm with the phrenic nerve attached; test: Rat hemisected diaphragm (HMD) assay, ex vivo; settings: Rattus norvegicus; relative to 3 μM d-Tubocurarine relaxation = 100%
From the text: Wistar derived male or female rats weighing 450 ± 50 g were euthanized by CO2 overexposure. The diaphragm with the phrenic nerve attached was removed and placed into a tissue recording chamber containing Krebs solution pH 7.4; (composition in g/L: NaCl 6.89, KCl 0.35, CaCl2 0.277, KH2PO4 0.163, MgSO4 · 7H2O 0.296, NaHCO3 2.1 and glucose 1.8). A piece of cotton was attached to the top of the phrenic nerve over the jaw electrodes. A second piece of cotton was attached to the tip of the tendinous tissue at the apex of the diaphragm preparation for attachment to an isometric transducer under 1 g tension. The rib of the diaphragm preparation was secured to the bottom of the jaw electrodes. […] The recording chamber was placed into a water bath kept at a temperature of 32°C by means of a suitable thermoregulator consisting of a thermostat and heating elements in addition to a water circulator.
The isometric transducer was connected to an amplifier and the tissue response was recorded on a two-pen recorder set at 1 volt. Field stimulation [S48 Stimulator (GRASS) set at 0.2 Hz (12 pulses per minute), 0.5 ms pulse duration at 70% of maximum voltage (about 3 to 5 volts)] delivered to two circle platinum electrodes (0.2 cm in diameter) was applied for transmural tissue stimulation. Each tissue preparation was washed three times in Krebs solution every 15 minutes for a 60 minute equilibration period and permitted to develop contractions. D-Tubocurarine (300 µM dissolved in 0.1 mL distilled water for a final 3 µM bath concentration) was added to establish an isometrically recorded control relaxation response ranging from one to two centimeters and corresponding to 60–70% of maximal relaxation. […] The tissue was then washed periodically until the contraction returns to the baseline value.
Sixty minutes later, the test compound was added (e.g. 30 mM in 0.01 mL vehicle of 100% DMSO, for final concentration of 30 µM test compound and 0.1% DMSO). A test compound recorded relaxation response of 50% or more (≥50%) within 5 minutes, relative to the 3 µM d-Tubocurarine control response, indicates neuromuscular blocking activity.

[3] = Plasma exposure in rat CV/R assay; format: in vivo; settings: for concentration at 15 min / concentration at 30 min: male, CD, plasma, iv
From the text: as §1, with “Doses were selected to achieve unbound plasma concentrations in range of measured Nav1.6 IC50 values when infused at 0.0167uL/g body weight/min based on measured rat clearance, plasma protein binding and Nav1.6 IC50.” left out

[4] = Permeability (Papp, passive diffusion); format: in vitro ADME
[5] = rat, IV infusion, 30 mg/kg, 15 min
[6] = rat, IV infusion, 30 mg/kg, 30 min
[7] = rat, IV infusion, 60 mg/kg, 15 min
[8] = rat, 30 mg/kg, rat, IV infusion, 30 mg/kg, read-out: Total [plasma]
[9] = rat, 30 mg/kg, rat, IV infusion, 30 mg/kg, read-out: Unbound [plasma]
[10] = rat, IV infusion, 60 mg/kg, 21–23 min, just prior to death

In the case of `N#Cc1cc(S(=O)(=O)Nc2cscn2)ccc1Oc1ccc(Cl)cc1-c1ccnn1C1CNC1` [SSCI-5], the mortality ([1]; rat CV/R assay, IV infusion, doses tested) is reported as “mortality”, the “∆ Heart Rate” value [1, 5] is reported as −1.7 ± 1.3 bpm and the “∆ Mean Arterial Pressure” value [1, 5] is reported as 14.0 ± 2.1 mmHg. The “∆ QRS Interval” value [1, 5] was 1.5 ± 1.1, the “∆ respiratory rate” value [1, 5] was −13.0 ± 3.4% and the “∆ Heart Rate” value [1, 6] was −3.7 ± 2.8 bpm. The “∆ Mean Arterial Pressure” value [1, 6] was 13.3 ± 5.5 mmHg, the “∆ QRS Interval” value [1, 6] was 4.6 ± 3.2 and the “∆ respiratory rate” value [1, 6] was −10.2 ± 2.6%. For the same molecule, the “∆ respiratory rate” value ([1]; rat, IV infusion, 60 mg/kg, 21–23 min) was −100%, the “∆ Heart Rate” value [1, 7] was 1.0 bpm and the “∆ Mean Arterial Pressure” value [1, 7] was 5.2 mmHg. The “∆ QRS Interval” value [1, 7] was 5.2, the “∆ respiratory rate” value [1, 7] was −15.6% and the “time to respiratory and cardiac collapse” value ([1]; rat, infusion without ventilatory support) was at most 30 min. The IC50 [2] was 11 µM, the concentration at 15 min [3, 8] was 38.2 ± 1.6 µM and the concentration at 15 min [3, 9] was 4.9 ± 0.2 µM. For the same molecule, the concentration at 30 min [3, 8] was 42.1 ± 1.2 µM, the concentration at 30 min [3, 9] was 5.4 ± 0.2 µM and the concentration at 15 min ([3]; rat, 60 mg/kg, rat, IV infusion, 60 mg/kg, read-out: Total [plasma]) was 67.7 µM. The concentration at 15 min ([3]; rat, 60 mg/kg, rat, IV infusion, 60 mg/kg, read-out: Unbound [plasma]) was 8.7 µM, the “unbound plasma concentration just prior to death” value ([3]; rat CV/R assay, blood samples taken just prior to death) was 19.7 µM and the “Total [plasma]” value [3, 10] was 154a μM. For the same molecule, the “Unbound [plasma]” value [3, 10] was 19.7a μM and the Papp [4] was 1.351 10e-6cm/s.
